Results from the supplement of paper PMC8671470.

Legend:
Conditions in all cases: 72 h
BV-173 [1] = test system: BV-173
In short: (§1)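 Seeded in RPMI 1640 at densities within the linear growth range, fifteen myeloid leukaemia cell lines were dispensed into 384-well plates with acoustically pre-printed compounds spanning five tenfold doses from 1 to 10,000 nM, in duplicate. The plates were kept for 72 h at 37 °C in 5% CO2 before luminescent ATP viability was measured and normalised to vehicle and to a positive control at 10 µM. Curves were fitted with a four-parameter log-logistic model. The IC50 was taken from those curves.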

HEL [2] = test system: HEL
In short: as §1

HL-60 [3] = test system: HL-60
In short: as §1

K-562 [4] = test system: K-562
In short: as §1

KCL-22 [5] = test system: KCL-22
In short: as §1

KG-1 [6] = test system: KG-1
In short: as §1

KU-812 = test system: KU-812
In short: as §1

LAMA-84 [7] = test system: LAMA-84
In short: as §1

ML-2 [8] = test system: ML-2
In short: as §1

MOLM-13 [9] = test system: MOLM-13
In short: as §1

MV4-11 [10] = test system: MV4-11
In short: as §1

Mono-Mac-6 = test system: Mono-Mac-6
In short: as §1

NOMO-1 = test system: NOMO-1
In short: as §1

SHI-1 [11] = test system: SHI-1
In short: as §1

THP-1 = test system: THP-1
In short: as §1

HL-60 [12] = experiment: cell viability (% survival relative to DMSO control); higher = less cytotoxic
In short: (§2)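 HL-60 cells grown in RPMI 1640 with 10% FBS were rescreened against the full library in 384-well plates, in duplicate, at five tenfold concentrations from 1 to 10,000 nM, alongside DMSO or 100 nM of one of three metabolic inhibitors for 72 h at 37 °C, 5% CO2. Reference wells contained DMSO or 10 μM proteasome inhibitor. Viability was read with CellTiter-Glo and normalised to these reference wells, and where reported, area under the curve was taken from four-parameter log-logistic fits in drc and PharmacoGx.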

BV-173 [13] = experiment: cell viability (% survival relative to DMSO control, bortezomib = 0%); higher = less cytotoxic
In short: (§3)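 Fifteen myeloid leukaemia cell lines were exposed to compounds at 1, 10, 100, 1000 or 10000 nM in 384-well plates for 72 h at 37 °C and 5% CO2. Viability was read by CellTiter-Glo luminescence and normalised, with vehicle as 100% and a 10 µM positive control as 0%. Values are percent survival averaged over duplicates.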

HEL [14] = experiment: as above
In short: as §3

HL-60 [15] = experiment: as above
In short: as §3

K-562 [16] = experiment: as above
In short: as §3

KCL-22 [17] = experiment: as above
In short: as §3

KG-1 [18] = experiment: as above
In short: as §3

LAMA-84 [19] = experiment: as above
In short: as §3

ML-2 [20] = experiment: as above
In short: as §3

MOLM-13 [21] = experiment: as above
In short: as §3

MV4-11 [22] = experiment: as above
In short: as §3

SHI-1 [23] = experiment: as above
In short: as §3

HL-60 [24] = experiment: area under dose-response curve (viability, 1 nM-10 uM) (fraction (0-1)); higher = more sensitive
In short: as §2

CC(C)c1ccc2c(c1)c(SC(C)(C)C)c(CC(C)(C)C(=O)O)n2Cc1ccc(Cl)cc1 [MK-886]
Conditions | IC50 (cell viability) [nM]
BV-173 [1] | > 10000
HEL [2] | > 10000
HL-60 [3] | > 10000
K-562 [4] | > 10000
KCL-22 [5] | 4260
KG-1 [6] | > 10000
KU-812 | > 10000
LAMA-84 [7] | > 10000
ML-2 [8] | > 10000
MOLM-13 [9] | > 10000
MV4-11 [10] | > 10000
Mono-Mac-6 | > 10000
NOMO-1 | > 10000
SHI-1 [11] | > 10000
THP-1 | > 10000

cell viability [%], HL-60 [12]
Conditions | 0.001 µM | 0.01 µM | 0.1 µM | 1 µM | 10 µM
co-treatment: AZD3965 100 nM | 105 | 95.8 | 108 | 99.8 | 102
co-treatment: DMSO vehicle | 103 | 99.9 | 104.5 | 107 | 109.9
co-treatment: GSK2194069 100 nM | 104 | 98.8 | 105 | 97.5 | 94.4
co-treatment: pictilisib 100 nM | 105 | 98.1 | 109 | 98.9 | 108

Conditions | area under dose-response curve, co-treatment: AZD3965 100 nM | area under dose-response curve, co-treatment: DMSO vehicle | area under dose-response curve, co-treatment: GSK2194069 100 nM | area under dose-response curve, co-treatment: pictilisib 100 nM | cell viability, 1 nM [%] | cell viability, 10 nM [%] | cell viability, 100 nM [%] | cell viability, 1000 nM [%] | cell viability, 10000 nM [%]
BV-173 [13] | – | – | – | – | 121 | 89.6 | 114 | 103 | 94.9
HEL [14] | – | – | – | – | 110 | 112 | 99.2 | 95.3 | 82.7
HL-60 [15] | – | – | – | – | 108 | 103 | 94.8 | 93.7 | 124
HL-60 [24] | < 0.0301 | < 0.0301 | < 0.0301 | < 0.0301 | – | – | – | – | –
K-562 [16] | – | – | – | – | 109 | 97 | 101 | 100 | 106
KCL-22 [17] | – | – | – | – | 108 | 110 | 105 | 89.7 | 39.1
KG-1 [18] | – | – | – | – | 111 | 102 | 89.4 | 93.8 | 91.5
LAMA-84 [19] | – | – | – | – | 96.6 | 101 | 97.2 | 100 | 115
ML-2 [20] | – | – | – | – | 132 | 107 | 95.3 | 95.8 | 67.8
MOLM-13 [21] | – | – | – | – | 89 | 103 | 88.9 | 85.3 | 88.4
MV4-11 [22] | – | – | – | – | 107 | 109 | 96.9 | 94.5 | 96.5
SHI-1 [23] | – | – | – | – | 108 | 110 | 104 | 93.2 | 98.3

O=C(CCl)N(CCCNC(=O)C(F)(F)F)c1ccc([N+](=O)[O-])cc1 [ML175]
Conditions | IC50 (cell viability) [nM]
BV-173 [1] | 320
HEL [2] | 297
HL-60 [3] | 2130
K-562 [4] | 2950
KCL-22 [5] | 2070
KG-1 [6] | 341
KU-812 | 2230
LAMA-84 [7] | 2540
ML-2 [8] | 288
MOLM-13 [9] | 276
MV4-11 [10] | 309
Mono-Mac-6 | 896
NOMO-1 | 305
SHI-1 [11] | 3410
THP-1 | 2770

cell viability [%], HL-60 [12]
Conditions | 0.001 µM | 0.01 µM | 0.1 µM | 1 µM | 10 µM
co-treatment: AZD3965 100 nM | 103 | 100 | 102.27 | 104 | 0.129
co-treatment: DMSO vehicle | 104 | 103 | 99.79 | 99.8 | -1.45
co-treatment: GSK2194069 100 nM | 100 | 92.97 | 98.3 | 95.2 | -1.73
co-treatment: pictilisib 100 nM | 101 | 94.4 | 98.5 | 95.1 | 1.1

Conditions | area under dose-response curve, co-treatment: AZD3965 100 nM | area under dose-response curve, co-treatment: DMSO vehicle | area under dose-response curve, co-treatment: GSK2194069 100 nM | area under dose-response curve, co-treatment: pictilisib 100 nM | cell viability, 1 nM [%] | cell viability, 10 nM [%] | cell viability, 100 nM [%] | cell viability, 1000 nM [%] | cell viability, 10000 nM [%]
BV-173 [13] | – | – | – | – | 122 | 99.9 | 101 | -0.0318 | -0.742
HEL [14] | – | – | – | – | 105 | 106 | 96.3 | -0.0497 | -0.423
HL-60 [15] | – | – | – | – | 104 | 111 | 110 | 83.4 | -1.03
HL-60 [24] | 0.125 | 0.133 | 0.14 | 0.136 | – | – | – | – | –
K-562 [16] | – | – | – | – | 101 | 91.9 | 99.6 | 95.7 | -0.364
KCL-22 [17] | – | – | – | – | 113 | 118 | 85 | 82.5 | -0.718
KG-1 [18] | – | – | – | – | 109 | 109 | 96.8 | 6.67 | -0.879
LAMA-84 [19] | – | – | – | – | 107 | 106 | 90.5 | 89.9 | -0.333
ML-2 [20] | – | – | – | – | 97 | 102 | 94.5 | 0.519 | -0.998
MOLM-13 [21] | – | – | – | – | 89.5 | 115 | 92.4 | 0.57 | -1.51
MV4-11 [22] | – | – | – | – | 93.6 | 93 | 95.6 | -0.18 | -0.931
SHI-1 [23] | – | – | – | – | 95 | 127 | 85.1 | 107 | -0.834
